ChEMBL document CHEMBL1134915, “Acyl dipeptides as reversible caspase inhibitors. Part 2: further optimization” (Bioorg Med Chem Lett, 2002)

Columns and labels:
Caspase-6 [1] = molecular target: T1, Caspase-6 (Homo sapiens, UniProt P55212); assay: Inhibition of Caspase-6
T1 sequence (P55212 whole entry): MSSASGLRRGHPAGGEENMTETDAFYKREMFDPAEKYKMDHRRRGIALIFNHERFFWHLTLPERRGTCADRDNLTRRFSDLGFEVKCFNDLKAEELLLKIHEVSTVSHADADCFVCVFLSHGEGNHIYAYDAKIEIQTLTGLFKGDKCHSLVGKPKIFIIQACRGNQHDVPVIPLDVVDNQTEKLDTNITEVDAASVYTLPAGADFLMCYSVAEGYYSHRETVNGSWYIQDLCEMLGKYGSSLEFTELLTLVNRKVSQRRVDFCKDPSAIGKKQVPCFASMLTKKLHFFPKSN

Caspase-8 [2] = molecular target: T2, Caspase-8 (Homo sapiens, UniProt Q14790); assay: Inhibition of Caspase-8 enzyme
Caspase-7 [3] = molecular target: T3, Caspase-7 (Homo sapiens, UniProt P55210); assay: Inhibition of Caspase-7 enzyme
T3 sequence (P55210 whole entry): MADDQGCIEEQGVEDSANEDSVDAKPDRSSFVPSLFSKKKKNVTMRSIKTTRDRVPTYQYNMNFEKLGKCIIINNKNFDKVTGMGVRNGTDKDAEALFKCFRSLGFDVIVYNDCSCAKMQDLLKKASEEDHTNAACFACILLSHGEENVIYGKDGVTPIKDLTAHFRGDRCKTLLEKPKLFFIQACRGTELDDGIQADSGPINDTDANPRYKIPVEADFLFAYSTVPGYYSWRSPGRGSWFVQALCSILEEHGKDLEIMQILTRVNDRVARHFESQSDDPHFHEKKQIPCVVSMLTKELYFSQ

Caspase-1 [4] = molecular target: T4, Caspase-1 (Homo sapiens, UniProt P29466); assay: Inhibition of Caspase-1 enzyme
T4 sequence (P29466 whole entry): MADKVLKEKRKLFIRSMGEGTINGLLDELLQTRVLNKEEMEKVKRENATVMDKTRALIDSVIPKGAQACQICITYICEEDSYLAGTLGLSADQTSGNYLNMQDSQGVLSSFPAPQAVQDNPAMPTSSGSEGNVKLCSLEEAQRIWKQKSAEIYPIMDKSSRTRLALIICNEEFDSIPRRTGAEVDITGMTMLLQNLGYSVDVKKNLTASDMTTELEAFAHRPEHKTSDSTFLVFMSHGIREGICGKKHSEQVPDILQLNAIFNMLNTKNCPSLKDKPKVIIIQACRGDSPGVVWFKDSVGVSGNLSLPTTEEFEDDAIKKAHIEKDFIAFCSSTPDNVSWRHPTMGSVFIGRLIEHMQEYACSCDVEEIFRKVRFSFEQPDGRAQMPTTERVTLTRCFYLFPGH

Caspase-3 [5] = molecular target: T5, Caspase-3 (Homo sapiens, UniProt P42574); assay: Inhibition of Caspase-3
T5 sequence (P42574 whole entry): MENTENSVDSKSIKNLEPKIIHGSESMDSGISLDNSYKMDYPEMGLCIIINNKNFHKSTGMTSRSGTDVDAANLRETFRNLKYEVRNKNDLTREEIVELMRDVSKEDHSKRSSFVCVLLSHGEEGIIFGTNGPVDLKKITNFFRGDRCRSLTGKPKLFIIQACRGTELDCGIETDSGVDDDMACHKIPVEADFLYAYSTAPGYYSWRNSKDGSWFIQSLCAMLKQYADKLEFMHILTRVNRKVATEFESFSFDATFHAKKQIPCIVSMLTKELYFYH

Caspase-7 [6] = molecular target: T3, Caspase-7; assay: Inhibitory concentration of compound required against Caspase-7 enzyme compared to acylated dipeptides
Caspase-3 [7] = molecular target: T5, Caspase-3; assay: Inhibitory concentration of compound required against Caspase-3 enzyme compared to acylated dipeptides
Caspase-6 [8] = molecular target: T1, Caspase-6; assay: Inhibitory concentration of compound required against Caspase-6 enzyme compared to acylated dipeptides
Caspase-1 [9] = molecular target: T4, Caspase-1; assay: Inhibitory concentration of compound required against Caspase-1 enzyme compared to acylated dipeptides
Caspase-8 [10] = molecular target: T2, Caspase-8; assay: Inhibitory concentration of compound required against Caspase-8 enzyme compared to acylated dipeptides

T2 sequence (Q14790 217-374 limits assumed): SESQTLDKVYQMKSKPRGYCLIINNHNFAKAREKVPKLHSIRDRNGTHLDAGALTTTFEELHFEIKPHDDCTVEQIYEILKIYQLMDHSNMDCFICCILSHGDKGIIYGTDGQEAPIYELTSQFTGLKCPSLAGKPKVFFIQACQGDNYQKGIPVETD
T2 sequence (Q14790 385-479 limits assumed): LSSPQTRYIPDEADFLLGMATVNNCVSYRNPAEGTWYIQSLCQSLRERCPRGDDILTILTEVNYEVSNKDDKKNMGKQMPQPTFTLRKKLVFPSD

SMILES	IC50 (Caspase-6 [1]) [nM]	IC50 (Caspase-8 [2]) [nM]	IC50 (Caspase-7 [3]) [nM]	IC50 (Caspase-1 [4]) [nM]	IC50 (Caspase-3 [5]) [nM]	IC50 (Caspase-7 [6]) [nM]	IC50 (Caspase-3 [7]) [nM]	IC50 (Caspase-6 [8]) [nM]	IC50 (Caspase-1 [9]) [nM]	IC50 (Caspase-8 [10]) [nM]
CC(C)C(NC(=O)COc1cccc2c(NS(=O)(=O)C(F)(F)F)cccc12)C(=O)N[C@H]1CC(=O)OC1O (some centres not stated)	1010	615	11000	127	207					
CC(C)C(NC(=O)COc1cc2ccccc2cc1NS(=O)(=O)C(F)(F)F)C(=O)N[C@H]1CC(=O)OC1O (some centres not stated)	3030	1420	43700	2180	1920					
CC(C)CC(NC(=O)[C@@H](CCC(=O)O)Oc1cccc2ccccc12)C(=O)N[C@H]1CC(=O)OC1O (some centres not stated)	15	12	587		21					
CC(C)C(NC(=O)COc1c(C(=O)O)ccc2ccccc12)C(=O)N[C@H]1CC(=O)OC1O (some centres not stated)	1430	48	1650	385	54					
CC(C)CC(NC(=O)CNc1cccc(Oc2ccccc2)c1)C(=O)N[C@H]1CC(=O)OC1O (some centres not stated)	308	670	2670	330	230					
CC(C)CC(NC(=O)[C@H](CCC(=O)O)Oc1cccc2ccccc12)C(=O)N[C@H]1CC(=O)OC1O (some centres not stated)	3.5	31	130		3.8					
CC(C)CC(NC(=O)CNCC(Cc1ccccc1)c1ccccc1)C(=O)N[C@H]1CC(=O)OC1O (some centres not stated)	589	990	2920	790	320					
CC(C)C[C@H](NC(=O)C(C)Nc1cccc2ccccc12)C(=O)N[C@H]1CC(=O)OC1O (some centres not stated)	310	17	7240		512					
CC(C)C(NC(=O)CCOc1cccc2ccccc12)C(=O)N[C@H]1CC(=O)OC1O (some centres not stated)	4600	19600	37000	250	4400					
CC(C)CC(NC(=O)CNc1cccc2ccccc12)C(=O)N[C@H]1CC(=O)OC1O (some centres not stated)	37	7.6	1320	33	13					
CC(C)C(NC(=O)CNc1cccc2ccccc12)C(=O)N[C@H]1CC(=O)OC1O (some centres not stated)	7000	450	6140	15	1550					
CC(C)C(NC(=O)COc1cccc2ccccc12)C(=O)N[C@H]1CC(=O)OC1O (some centres not stated)	> 10000	1200	2100	336	355					
CC(C)C(NC(=O)COc1ccc2ccccc2c1C(=O)O)C(=O)N[C@H]1CC(=O)OC1O (some centres not stated)	3610	733	10900	2960	401					
CC(C)C(NC(=O)COc1cc2ccccc2cc1C(=O)O)C(=O)N[C@H]1CC(=O)OC1O (some centres not stated)	1900	200	17000	1890	731					
CC(=O)N[C@@H](CC(=O)O)C(=O)N[C@@H](CCC(=O)O)C(=O)N[C@H](C(=O)N[C@H]1CC(=O)OC1O)C(C)C (some centres not stated)						10	3.5	10	50	80
